In patent publication US10759785B2, “Compounds” (ENTERPRISE THERAPEUTICS LIMITED, priority 2016, dated 2020):

How the values were obtained:
ENaC [1] = target: T1, ENaC (Homo sapiens, UniProt P37088+P51168+P51170); assay: Short circuit current assay to determine ENaC blocker potency in human bronchial epithelial cells; format: cell-based; conditions: 50% inhibition of total amiloride-sensitive ISC, HBECs, apical addition; read-out: Averages. ENaC Ic50 μm Avg
T1 construct: host or cells: primary human bronchial epithelial cells (HBECs) differentiated at an air-liquid interface
T1 sequence (P37088 1-669): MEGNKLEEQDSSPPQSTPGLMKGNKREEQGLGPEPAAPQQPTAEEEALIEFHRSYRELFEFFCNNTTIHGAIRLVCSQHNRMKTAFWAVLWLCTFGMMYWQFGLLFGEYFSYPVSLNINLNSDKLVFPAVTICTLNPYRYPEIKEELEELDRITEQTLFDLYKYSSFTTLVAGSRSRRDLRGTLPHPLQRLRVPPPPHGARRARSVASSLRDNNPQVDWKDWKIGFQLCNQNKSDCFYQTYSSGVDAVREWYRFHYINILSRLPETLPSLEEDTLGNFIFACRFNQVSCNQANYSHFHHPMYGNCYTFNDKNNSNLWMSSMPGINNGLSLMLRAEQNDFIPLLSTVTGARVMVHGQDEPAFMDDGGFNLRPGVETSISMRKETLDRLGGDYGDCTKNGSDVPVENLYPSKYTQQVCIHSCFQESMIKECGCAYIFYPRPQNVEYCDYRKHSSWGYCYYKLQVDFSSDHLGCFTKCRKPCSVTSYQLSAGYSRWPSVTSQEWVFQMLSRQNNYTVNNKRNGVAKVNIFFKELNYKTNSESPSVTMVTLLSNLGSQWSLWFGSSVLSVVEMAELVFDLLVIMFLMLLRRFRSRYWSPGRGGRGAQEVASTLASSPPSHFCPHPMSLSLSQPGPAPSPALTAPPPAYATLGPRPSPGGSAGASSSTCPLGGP
T1 sequence (P51168 1-640): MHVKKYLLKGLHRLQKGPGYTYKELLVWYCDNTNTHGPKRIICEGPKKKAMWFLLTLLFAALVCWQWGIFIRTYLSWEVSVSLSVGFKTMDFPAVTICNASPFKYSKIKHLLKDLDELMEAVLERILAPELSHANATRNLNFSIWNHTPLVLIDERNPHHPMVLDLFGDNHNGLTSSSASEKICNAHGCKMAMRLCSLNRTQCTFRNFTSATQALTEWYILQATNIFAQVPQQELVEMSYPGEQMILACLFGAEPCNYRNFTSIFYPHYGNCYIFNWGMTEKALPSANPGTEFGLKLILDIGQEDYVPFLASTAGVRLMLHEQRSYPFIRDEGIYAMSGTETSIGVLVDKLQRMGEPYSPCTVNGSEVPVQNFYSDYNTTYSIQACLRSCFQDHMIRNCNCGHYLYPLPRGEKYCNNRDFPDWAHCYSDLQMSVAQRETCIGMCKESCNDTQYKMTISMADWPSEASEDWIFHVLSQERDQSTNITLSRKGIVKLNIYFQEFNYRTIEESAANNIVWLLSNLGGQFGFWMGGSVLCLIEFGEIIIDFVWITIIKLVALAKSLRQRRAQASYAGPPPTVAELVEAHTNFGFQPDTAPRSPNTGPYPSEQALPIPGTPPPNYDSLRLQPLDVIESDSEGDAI
T1 sequence (P51170 1-649): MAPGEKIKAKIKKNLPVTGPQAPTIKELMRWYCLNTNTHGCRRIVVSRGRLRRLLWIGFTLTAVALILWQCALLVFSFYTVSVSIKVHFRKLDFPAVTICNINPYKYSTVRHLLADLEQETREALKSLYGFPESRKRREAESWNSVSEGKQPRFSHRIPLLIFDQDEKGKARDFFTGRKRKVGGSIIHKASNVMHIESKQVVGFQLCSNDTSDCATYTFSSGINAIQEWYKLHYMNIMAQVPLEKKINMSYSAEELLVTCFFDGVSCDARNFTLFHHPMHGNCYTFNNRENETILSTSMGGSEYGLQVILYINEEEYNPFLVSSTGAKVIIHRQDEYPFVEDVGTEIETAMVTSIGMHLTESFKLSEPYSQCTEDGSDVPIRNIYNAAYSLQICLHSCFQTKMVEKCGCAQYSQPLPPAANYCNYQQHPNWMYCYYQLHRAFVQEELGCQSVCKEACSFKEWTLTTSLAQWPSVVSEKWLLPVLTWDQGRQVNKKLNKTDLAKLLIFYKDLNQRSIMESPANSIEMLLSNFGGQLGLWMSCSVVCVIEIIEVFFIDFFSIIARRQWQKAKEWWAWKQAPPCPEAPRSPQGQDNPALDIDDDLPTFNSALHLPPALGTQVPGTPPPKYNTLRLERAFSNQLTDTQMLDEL
Method: Example 27—Short Circuit Current Assay to Determine ENaC Blocker Potency in Human Bronchial Epithelial Cells
Human bronchial epithelial cells (HBECs) (Lonza, UK) were cultured using a modification of the method described by Coote et al, (2008). Cells were seeded into plastic T-75 flasks and grown in Bronchial Epithelial Cell Growth Medium (BEGM) (Lonza, UK) supplemented with bovine pituitary extract (52 ng/mL), hydrocortisone (0.5 μg/mL), human recombinant Epidermal Growth Factor (0.5 ng/mL), epinephrine (0.5 ng/mL), transferrin (10 ng/mL), insulin (5 ng/mL), retinoic acid (0.1 ng/mL), triiodothyronine (6.5 ng/mL), gentamycin (50 μg/mL) and amphotericin-B (50 ng/mL). Medium was changed every 48 hours until cells were 90% confluent. Cells were then passaged and seeded (8.25×10^5 cells/insert) onto polycarbonate Snapwell™ inserts (Costar, UK) in differentiation media containing 50% DMEM in BGEM with the same supplements as above but without triiodothyronine and a final retinoic acid concentration of 50 nM (all-trans retinoic acid; Sigma-Aldrich, UK). Cells were maintained submerged for the first 7 days in culture after which time they were exposed to an apical air interface for the remainder of the culture period. From the first day of establishment of an ALI, HBEC were fed with a DMEM:HAMS F-12 (1:1) media containing 2% Ultroser G (Pall BioSepra, France) with gentamycin (50 μg/mL) and amphotericin B (50 ng/mL). Cells were used for short-circuit current assay between days 14-21 after the establishment of the ALI. At all stages of culture, cells were maintained at 37′C in 5% CO2 in an air incubator.
Short-Circuit Current (ISC) Measurements
Snapwell inserts were mounted in Costar Vertical Diffusion Chambers (Costar, UK) and were bathed with continuously gassed Ringer solution (5% CO2 in O2; pH 7.4) maintained at 37° C. containing (in mM): 120 NaCl, 25 NaHCO3, 3.3 KH2PO4, 0.8 K2HPO4, 1.2 CaCl2, 1.2 MgCl2 and 10 glucose. The solution osmolarity was always between 280-300 mOsm/kg H2O for all physiological salt solutions used. Cells were voltage clamped to 0 mV (model EVC4000, WPI). Transepithelial resistance (RT) was measured by applying a 2 mV pulse at 30 s intervals and calculating RT by Ohm's law. Data were recorded using a PowerLab workstation (ADInstruments, UK).
ENaC blocker compounds were added to the apical chamber from a 1000-fold stock solution (prepared in DMSO) to achieve a cumulative concentration response in terms of the inhibition of the basal ISC. At the completion of the concentration response, a supra-maximal concentration of amiloride (10 μM) was added. The concentration of test compound that induced a 50% inhibition of the total amiloride-sensitive ISC (IC50) was calculated using GraphPad Prism v6.05.

ENaC [2] = target: T1, ENaC; conditions: cited from earlier work
[3] = Hepatic stability (rat cryopreserved hepatocytes); format: in vitro ADME; conditions: pH 7.4, 1 μM test compound, 1×10^6 cells/mL, 37° C., read-out: Averages. Hep Half Life Rat
Method: (§1) Example 29—Hepatic Stability
(§2) Cryopreserved hepatocytes (rat and human) were obtained from Bioreclamation. Test compound stock solutions in DMSO (10 mM) were diluted with DMSO to 4 mM. Further dilution was completed to achieve a 100 μM stock (5 μL of 4 mM in 195 μL of 50:50 DMSO:hepatocyte buffer). Final test compound concentration in incubation was 1 μM. The following probe substrates were used: testosterone and carbamazepine at a final incubation concentration of 1 μM. Hepatocyte buffer was prepared (Williams E media containing phenol red and Glutamax™, 15 mM HEPES, warmed to 37° C., pH7.4 with NaOH). Cells were removed from liquid nitrogen, thawed in a waterbath, decanted into 50 mL of pre-warmed Cryopreserved Hepatocyte Recovery Media (LifeTechnologies) and centrifuged. Supernatant fraction was removed, cells were re-suspended in hepatocyte buffer and counted by trypan blue exclusion. Cell viability of >80% was required for all assays. Cells were re-suspended to 1×10^6/mL and 198 μL cell suspension added to each 96-well. 2 μL of 100 μM compound stock solution was added to relevant wells to initiate the incubation. A no cell control and two replicates of each test compound was included in every assay. Cells were incubated at 37° C., on a shaker set at 300 rpm. At each timepoint (0, 15, 30, 45, 60, 90 min) 20 μL of sample was removed from the 96-well and added to 80 μL of quench solution (acetonitrile containing 0.1% formic acid and imipramine/labetalol, 200 nM). Samples were diluted 1:1 with water using the Janus Robot and analysed by LC-MS/MS.

[4] = Microsomal stability (rat microsomes); format: in vitro ADME; conditions: pH 7.4, 1 μM test compound, 0.5 mg/mL protein, 1 mM NADPH, 37° C., read-out: Averages. Mic Half Life Rat
Method: (§3) Example 28—Microsomal Stability
(§4) Microsomes (rat and human) were obtained from Bioreclamation. Test compound stock solutions in DMSO (10 mM) were diluted with DMSO to 2 mM. Further dilution was completed to achieve a 100 μM stock (final concentrations; 91.5% Acetonitrile: 8.5% DMSO). Final test compound concentration in incubation was 1 μM (<0.1% DMSO). The following probe substrates were used: verapamil, propranolol, metoprolol and phenacetin (rat) at a final incubation concentration of 1 μM. Assay buffer—Solution 1: 17.4 g potassium phosphate dibasic anhydrous (K2HPO4, 0.1 M) dissolved in 1 L deionised water. Solution 2: 13.6 g potassium phosphate monobasic anhydrous (KH2PO4, 0.1 M) dissolved in 1 L deionised water. Potassium phosphate solutions 1 and 2 were combined to form a pH 7.42 solution at 37° C. pH 7.4 with 2 mM magnesium chloride. NADPH (10 mM)—diluted in deionised water. Frozen microsomes were thawed at 37° C. Microsomes were diluted in assay buffer to achieve a final protein concentration of 0.5 mg/mL and 1 mM NADPH. The following procedure was completed on a Perkin Elmer Janus robotic platform in 96 well format: The microsomal incubation plate was transferred to a heater shaker at 300 rpm and solution heated to 37° C. for 10 min pre-warm. A no co-factor control at 0 and 45 min and one replicates of each test compound was included in every assay. Microsomes were incubated at 37° C., on a shaker set at 300 rpm throughout the assay. At each timepoint (0, 5, 15, 30, 45 min) 50 μL of sample was removed from the 96-well and added to 200 μL of quench solution (acetonitrile containing 0.1% formic acid and imipramine/labetalol, 200 nM). Samples were diluted 1:1 with water using the Janus Robot and analysed by LC-MS/MS.

[5] = Hepatic stability (human cryopreserved hepatocytes); format: in vitro ADME; conditions: cryopreserved hepatocytes, pH 7.4, 1 μM test compound, 1×10^6 cells/mL, 37° C., read-out: Averages. Hep Half Life Human
Method: as §1, §2

[6] = Microsomal stability (human microsomes); format: in vitro ADME; conditions: pH 7.4, 1 μM test compound, 0.5 mg/mL protein, 1 mM NADPH, 37° C., read-out: Averages. Mic Half Life Human
Method: as §3, §4

CCn1c(CNC(=O)c2nc(Br)cnc2N)[n+](CC)c2ccc(C(=O)O)cc21 [Example 16, 2-{[(3-amino-6-bromopyrazin-2-yl)formamido]methyl}-6-carboxy-1,3-diethyl-1H-1,3-benzodiazol-3-ium bromide]
IC50 (ENaC [1]): 14 nM

N=C(N)NC(=O)c1nc(Cl)c(N)nc1N [Amiloride]
Effect on MCC (ENaC [2]; healthy controls and patients with CF): increase MCC | Effect on clinical endpoints (ENaC [2]; inhaled amiloride): lack of a robust effect

CCn1c(CNC(=O)c2nc(Br)cnc2N)[n+](C)c2ccc(OC)cc21.[I-] [Example 1, 2-{[(3-amino-6-bromopyrazin-2-yl)formamido]methyl}-1-ethyl-6-methoxy-3-methyl-1H-1,3-benzodiazol-3-ium iodide]
half-life at 1 μM [3]: 6 min | half-life at 1 μM [4]: 3 min | half-life at 1 μM [5]: 44 min | half-life at 1 μM [6]: 12 min
